Paper doi:10.1101/2021.10.07.463234v2 (biorxiv, 2021)
Counter-ions that a name gives are not always drawn.

biological target: SARS-CoV-2 Mac1 (Severe acute respiratory syndrome coronavirus 2, UniProt P0DTD1); experiment: biochemical; conditions: 100 µM; inhibitor

| Structure (SMILES) | %inhibition [%] |
| --- | --- |
| CCCC(CCC)C(=O)O [Valproic acid sodium salt (Sodium valproate)] | 16.22 |
| NC[C@H]1O[C@H](O[C@H]2[C@H](O)[C@@H](O[C@H]3O[C@H](CO)[C@@H](O)[C@H](N)[C@H]3O)[C@H](N)C[C@@H]2N)[C@H](N)C[C@@H]1O [Tobramycin] | 0 |
| CCN1CC(CCN2CCOCC2)C(c2ccccc2)(c2ccccc2)C1=O (stereo not shown) [Doxapram] | 4.735 |
| CCCCCCNC(=O)n1cc(F)c(=O)[nH]c1=O [Carmofur] | 16.37 |
| O=C(O)c1ccccc1O [Salicylic acid] | 1.324 |
| CC(=O)Oc1cc2c(s1)CCN(C(C(=O)C1CC1)c1ccccc1F)C2 (stereo not shown) [Prasugrel Hydrochloride] | 0 |
| CO/N=C(\C(=O)N[C@@H]1C(=O)N2C(C(=O)O)=C(CSC(=O)c3ccco3)CS[C@H]12)c1csc(N)n1 [Ceftiofur] | 0 |
| Cc1c(-c2ccc(O)cc2)n(Cc2ccc(OCCN3CCCCCC3)cc2)c2ccc(O)cc12 [Bazedoxifene Acetate] | 3.518 |
| COc1cc(Nc2ncc(F)c(Nc3ccc4c(n3)N(COP(=O)(O)O)C(=O)C(C)(C)O4)n2)cc(OC)c1OC [R788 (Fostamatinib) Disodium] | 15.48 |
| C/C(=C\C(=O)OCCCCCCCCC(=O)O)C[C@@H]1OC[C@H](C[C@@H]2O[C@H]2[C@@H](C)[C@H](C)O)[C@@H](O)[C@H]1O [Mupirocin calcium] | 3.887 |
| CCN(C)C(=O)Oc1cccc([C@H](C)N(C)C)c1 [Rivastigmine Tartrate] | 0.5521 |
| CCN(CC)Cc1cc(Nc2ccnc3cc(Cl)ccc23)ccc1O [Amodiaquine hydrochloride] | 7.946 |

same assay, conditions: read-out: %inhibition

| Structure (SMILES) | inhibition at 100 µM [%] |
| --- | --- |
| C[C@@H](O)[C@H]1C(=O)N2C(C(=O)O)=C([C@H]3CCCO3)S[C@H]12 [Faropenem Sodium] | 0 |
| C[C@]12CCC3=C4CCC(=O)C=C4CC[C@H]3[C@@H]1CC[C@@]2(O)CC#N [Dienogest] | 22 |
| O=C(O[C@@H]1C[C@@H]2C[C@H]3C[C@H](C1)N2CC3=O)c1c[nH]c2ccccc12 [Dolasetron] | 7.05 |
| COc1ccc2c3c1O[C@H]1C[C@@H](O)C=C[C@@]31CCN(C)C2 [Galanthamine HBr] | 0 |
| CCOC(=O)[C@H](CCc1ccccc1)N[C@@H](C)C(=O)N(CC(=O)O)C1Cc2ccccc2C1 [Delapril Hydrochloride] | 0.215 |
| COc1c(N2CCNC(C)C2)c(F)cc2c(=O)c(C(=O)O)cn(C3CC3)c12 (stereo not shown) [Gatifloxacin] | 1.88 |
| Cc1nc(C)c(Cl)c(O)c1Cl [Clopidol] | 0.707 |
| C[C@]12CC[C@@H]3c4ccc(OS(=O)(=O)O)cc4CC[C@H]3[C@@H]1CCC2=O [Estropipate] | 8.24 |
| Cc1ccc(S(=O)(=O)NC(=O)NN2CC3CCC[C@@H]3C2)cc1 (stereo in doubt) [Gliclazide] | 9.52 |
| CC[C@@]1(O)C(=O)OCc2c1cc1n(c2=O)Cc2cc3c(CN(C)C)c(O)ccc3nc2-1 [Topotecan HCl] | 24.2 |
| NNc1nncc2ccccc12 [Hydralazine HCl] | 6.58 |
| CCCCOC(=O)c1ccc(O)cc1 [Butylparaben] | 0 |
| Cc1onc(-c2ccccc2Cl)c1C(=O)N[C@@H]1C(=O)N2[C@@H]1SC(C)(C)[C@@H]2C(=O)O [Cloxacillin Sodium] | 9.79 |
| CC(=O)N[C@H]1[C@H]([C@H](O)[C@H](O)CO)OC(C(=O)O)=C[C@@H]1NC(=N)N [Zanamivir] | 0 |
| O=C(O)c1cc(=O)[nH]c(=O)[nH]1 [Orotic acid (6-Carboxyuracil)] | 0 |
| c1ccc(C2CN3CCSC3=N2)cc1 (stereo not shown) [Tetramisole HCl] | 0 |
| CN(C)c1cc(NC(=O)CNC(C)(C)C)c(O)c2c1C[C@H]1C[C@H]3[C@H](N(C)C)C(O)=C(C(N)=O)C(=O)[C@@]3(O)C(O)=C1C2=O [Tigecycline] | 0 |
| COc1ccc2[nH]cc(CCNC(C)=O)c2c1 [Melatonin] | 9.33 |
| CCCCCCCCCC(=O)N[C@@H](Cc1c[nH]c2ccccc12)C(=O)N[C@H](CC(N)=O)C(=O)N[C@@H](CC(=O)O)C(=O)N[C@@H]1C(=O)NCC(=O)N[C@@H](CCCN)C(=O)N[C@@H](CC(=O)O)C(=O)N[C@H](C)C(=O)N[C@@H](CC(=O)O)C(=O)NCC(=O)N[C@H](CO)C(=O)N[C@@H]([C@H](C)CC(=O)O)C(=O)N[C@@H](CC(=O)c2ccccc2N)C(=O)O[C@@H]1C [Daptomycin] | 1.7 |
| CO[C@H]1C[C@H](O[C@@H]2/C(C)=C/C[C@@H]3C[C@@H](C[C@]4(CC[C@H](C)[C@@H](C5CCCCC5)O4)O3)OC(=O)[C@@H]3C=C(C)/C(=N/O)[C@H]4OC/C(=C\C=C\[C@@H]2C)[C@]43O)O[C@@H](C)[C@@H]1O [Selamectin] | 13.4 |

| Structure (SMILES) | inhibition at 100 µM [%] |
| --- | --- |
| CCN(CCCCOC(=O)c1ccc(OC)c(OC)c1)C(C)Cc1ccc(OC)cc1 (stereo not shown) [Mebeverine Hydrochloride] | 5.64 |
| O=C(O)c1ccccc1OP(=O)(O)O [Fosfosal] | 4.81 |
| Cn1c(COP(=O)(NCCBr)NCCBr)cnc1[N+](=O)[O-] [Evofosfamide (TH-302)] | 12.7 |
| OC(c1ccccc1)(c1ccccc1)C1CCNCC1 [Azacyclonol] | 0 |
| CC[C@H](C)C(=O)O[C@H]1C[C@@H](C)C=C2C=C[C@H](C)[C@H](CC[C@@H]3C[C@@H](O)CC(=O)O3)[C@H]21 [Lovastatin] | 0 |
| CCOC(=O)[C@H](CCc1ccccc1)N[C@@H](C)C(=O)N1C(=O)N(C)C[C@H]1C(=O)O [Imidapril HCl] | 0 |
| CC(=O)OC/C=C(C)/C=C/C=C(C)/C=C/C1=C(C)CCCC1(C)C [Vitamin A Acetate] | 4.44 |
| CCOC(=O)C1=C(C)NC(C)=C(C(=O)OCC)C1c1ccccc1/C=C/C(=O)OC(C)(C)C [Lacidipine] | 3.07 |
| C[C@]12CC[C@@H]3c4ccc(O)cc4CC[C@H]3[C@@H]1CC[C@@H]2OC(=O)CCC1CCCC1 [Estradiol Cypionate] | 0 |
| Cc1cc(-n2c(=O)[nH]c(=O)n(C)c2=O)ccc1Oc1ccc(SC(F)(F)F)cc1 [Toltrazuril] | 0 |
| CN1CCC(=C2c3ccccc3CCc3cccnc32)CC1 [Azatadine dimaleate] | 0 |
| CCOC(=O)Nc1ccc(NCc2ccc(F)cc2)nc1N [Flupirtine maleate] | 4.99 |
| Oc1c(Br)cc(Br)c2cccnc12 [Broxyquinoline] | 0 |
| COc1ccc2cc([C@H](C)C(=O)O)ccc2c1 [Naproxen Sodium] | 0 |
| C[C@H]1[C@H](NC(=O)/C(=N\OC(C)(C)C(=O)O)c2csc(N)n2)C(=O)N1S(=O)(=O)O [Aztreonam] | 11.7 |
| COc1cc(NC(C)CCCN)c2ncccc2c1 (stereo not shown) [Primaquine Diphosphate] | 5.42 |
| COCCOC(=O)C1=C(C)NC(C)=C(C(=O)OC(C)C)C1c1cccc([N+](=O)[O-])c1 (stereo not shown) [Nimodipine] | 21.8 |
| COc1ccc(C2C(=O)c3ccccc3C2=O)cc1 [Anisindione] | 2.26 |
| O=C(O)CCn1c2c(c3ccccc31)C[C@H](NS(=O)(=O)c1ccc(F)cc1)CC2 [Ramatroban] | 4.2 |
| C=CCc1cc(OC)c(O)c(C(=O)NCCO)c1 [Alibendol] | 15.2 |

| Structure (SMILES) | inhibition at 100 µM [%] |
| --- | --- |
| CC1CCc2c(N3CCC(O)CC3)c(F)cc3c(=O)c(C(=O)O)cn1c23 (stereo not shown) [Nadifloxacin] | 0 |
| CC1(C)S[C@@H]2[C@H](NC(=O)[C@H](C(=O)O)c3ccsc3)C(=O)N2[C@H]1C(=O)O [Ticarcillin sodium] | 7.19 |
| CC1(C)[C@@H](O)CC[C@]2(C)[C@H]3C(=O)C=C4[C@@H]5C[C@@](C)(C(=O)O)CC[C@]5(C)CC[C@@]4(C)[C@]3(C)CC[C@@H]12 [Enoxolone] | 0 |
| COC(=O)CCC(=O)CN [Methyl Aminolevulinate Hydrochloride] | 3.98 |
| CN1C[C@@H]2C[C@H]1CN2c1cc2c(cc1F)c(=O)c(C(=O)O)cn2C1CC1 [Danofloxacin Mesylate] | 0 |
| CC(N)[C@]12C[C@H]3C[C@H](C[C@H](C3)C1)C2 (stereo partly shown) [Rimantadine Hydrochloride] | 4.71 |
| COc1c(-c2ccc3cc(NS(C)(=O)=O)ccc3c2)cc(-n2ccc(=O)[nH]c2=O)cc1C(C)(C)C [Dasabuvir(ABT-333)] | 0.42 |
| CC12CC3CC(C)(C1)CC(N)(C3)C2 [Memantine HCl] | 0 |
| CO[C@H]1O[C@H](COS(=O)(=O)O)[C@@H](O[C@@H]2O[C@@H](C(=O)O)[C@@H](O[C@H]3O[C@H](COS(=O)(=O)O)[C@@H](O[C@@H]4O[C@H](C(=O)O)[C@@H](O[C@H]5O[C@H](COS(=O)(=O)O)[C@@H](O)[C@H](O)[C@H]5NS(=O)(=O)O)[C@H](O)[C@H]4O)[C@H](OS(=O)(=O)O)[C@H]3NS(=O)(=O)O)[C@H](O)[C@H]2OS(=O)(=O)O)[C@H](O)[C@H]1NS(=O)(=O)O [Fondaparinux Sodium] | 0 |
| CC(=O)Oc1cccc2c1C(=O)c1c(OC(C)=O)cc(C(=O)O)cc1C2=O [Diacerein] | 3.21 |
| CN(C)CCOC(=O)COc1ccc(Cl)cc1 [Meclofenoxate (Centrophenoxine) HCl] | 16.9 |
| Cc1ccccc1-c1cc(N2CCN(C)CC2)ncc1N(C)C(=O)C(C)(C)c1cc(C(F)(F)F)cc(C(F)(F)F)c1 [Netupitant] | 6.47 |
| OC(CCN1CCCCC1)(c1ccccc1)C1CCCCC1 (stereo not shown) [Trihexyphenidyl hydrochloride] | 2.89 |
| Clc1ccc(Nc2nnc(Cc3ccncc3)c3ccccc23)cc1 [Vatalanib (PTK787) 2HCl] | 0 |
| c1ccc2c(c1)CCCC2C1=NCCN1 (stereo not shown) [Tetrahydrozoline HCl] | 0 |
| C[N+](C)(C)CC(=O)O [Betaine] | 0 |
| CCN(CC)CCNC(=O)c1cc(Cl)c(N)cc1OC [Metoclopramide HCl] | 0 |
| C[C@@H](O[C@H]1OCCN(Cc2nn(P(=O)(O)O)c(=O)[nH]2)[C@H]1c1ccc(F)cc1)c1cc(C(F)(F)F)cc(C(F)(F)F)c1 [Fosaprepitant dimeglumine salt] | 3 |
